Measurements reported in paper PMC11847541, “Liver fatty acid binding protein FABP1 transfers substrates to cytochrome P450 4A11 for catalysis” (The Journal of Biological Chemistry, 2025).
Like-named read-outs stand apart in the source and are kept apart here.

Assays:
[1] = test system: P450 4A11; design: species or system human
Excerpt: To predict the potential effects of FABP1 on P450 4A11 catalysis, we programmed two computational models in KinTek Explorer to reflect those presented in Figure 2 (i.e., free ligand model versus direct transfer model). The models were equipped with the rate constants and/or Kd values estimated for either palmitate or DAUDA (where applicable) and for protein–protein binding, which are summarized in Table 2. As is indicated in Table 2, certain rate constants necessary for the modeling are estimated based on a known Kd value and an individual known rate constant. To predict the kinetic result of the free ligand model, the rate(s) of transfer (k6, k-6) were set to a value of zero, reflecting the predicted inability of the two proteins to interact. The interaction of P450 and FABP1 occurs in the absence of substrate, although whether the P450–FABP1 (EF) complex can accept a substrate (to form EFS) is unknown. The modeling software estimated a 1 µM Kd value for the interaction with the assumption that the complex could not accept a cytosolic substrate. To predict the kinetic result of the direct transfer model, our experimentally estimated rates of transfer were allowed to be fit by the model. Aside from the manipulations with the transfer rate, all remaining rate constants were input as they appear in Table 2.
When provided the experimental conditions for the kinetic assays in Figure 12, the free ligand model predicted that the rate of P450 catalysis decreases rapidly as the concentration of FABP1 approaches the concentration of substrate in the experiment (Fig. 12A, blue line), which is intuitive (given the difference in palmitate binding affinities; Table 1, Table 2 and 2). Provided the same conditions, the direct transfer model predicted a slight attenuation of P450 activity (as the concentration of FABP1 approaches the total concentration of substrate (S)), which yielded an excellent fit to our experimental data when a rate of P450 catalysis of 0.11 s^−1 was used (Fig. 12A, red line). […] In a separate experiment, the free ligand model similarly predicted that P450 activity would not be observed when the concentration of substrate was below the concentration of FABP1 (Fig. 12B, blue line). The direct transfer model predicted a hyperbolic product distribution (for [S] < [FABP1]) and gave a satisfactory fit to the experimental data when the same rates of ES^′→ES described earlier were used, but the rate of P450 catalysis was reduced 20-fold (to 0.005 s^−1) (Fig. 12B, red line).
Data were imported into KinTek Explorer software (version 11.01; KinTek, https://kintekcorp.com/software) ([76]) as Excel txt files and processed using an Apple computer (operating system 11.6.2, Apple). The kinetic modeling of a binding titration of FABP1 with palmitate (Fig. S13) as well as the txt files used for all kinetic modeling are provided in the Supporting Information.

[2] = target: T1, FABP1 (Homo sapiens, UniProt P07148); details: human FABP1, fluorescence displacement assay; read-out: Kd; cited from earlier work
T1 construct: GST (N, cleaved yes); made in house; host or cells: Escherichia coli DH5α
T1 sequence (P07148 with tags, fused parts or gaps): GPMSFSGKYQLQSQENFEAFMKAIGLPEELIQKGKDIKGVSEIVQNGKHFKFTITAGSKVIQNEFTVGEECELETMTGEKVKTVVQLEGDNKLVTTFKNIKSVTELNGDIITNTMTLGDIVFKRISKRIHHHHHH

[3] = target: T1, FABP1; design: method as in PMID 10852718; details: ADIFAB system; cited from earlier work
[4] = target: T2, P450 4A11 (Homo sapiens, UniProt Q02928); experiment: Alexa-FABP1 and P450 4A11 association kinetics (stopped-flow fluorescence); format: binding
T2 construct: made in house; host or cells: E. coli
T2 sequence (Q02928 5-519): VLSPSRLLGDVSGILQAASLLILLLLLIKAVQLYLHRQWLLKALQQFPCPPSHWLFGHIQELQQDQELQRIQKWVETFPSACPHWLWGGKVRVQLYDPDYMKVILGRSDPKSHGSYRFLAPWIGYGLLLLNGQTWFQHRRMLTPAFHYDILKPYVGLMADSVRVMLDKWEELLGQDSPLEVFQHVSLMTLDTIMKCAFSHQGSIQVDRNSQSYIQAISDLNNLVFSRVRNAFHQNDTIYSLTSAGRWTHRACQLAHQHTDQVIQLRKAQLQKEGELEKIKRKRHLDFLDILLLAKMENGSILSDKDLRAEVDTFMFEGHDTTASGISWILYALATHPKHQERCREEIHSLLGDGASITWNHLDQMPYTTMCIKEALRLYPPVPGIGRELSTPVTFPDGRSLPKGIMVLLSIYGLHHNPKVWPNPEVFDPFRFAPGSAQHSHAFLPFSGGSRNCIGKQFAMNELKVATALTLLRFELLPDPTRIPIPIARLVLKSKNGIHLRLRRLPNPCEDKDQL
T2 sequence (P07148 with tags, fused parts or gaps partner): T1 sequence (P07148 with tags, fused parts or gaps)
Procedure: We then investigated whether the rate of protein–protein association could be estimated using our fluorescent construct. A solution of Alexa-FABP1 (125 nM final concentration) was rapidly mixed with P450 4A11 (125 Nm final concentration), and Alexa-488 fluorescence was monitored over time. The data were fit to a single exponential equation and yielded an association rate of 2.0 ± 0.2 s^−1 (Fig. 10B).
To estimate a rate of interaction for FABP1 and P450, we loaded the protein–protein binding data (Fig. 10B) and fit the data to a simple model, E+F↔EF , as described in the Experimental procedures section. The software fit a kon rate of 2.0 × 10^7 M^−1 s^−1, close to that estimated by using the extracted binding rate ∼2 s^−1 at the concentration (0.125 μM) of either reaction component (i.e., 2 s^−1/0.125 μM = 16 μM^−1 s^−1 = 1.6 × 10^7 M^−1 s^−1).
Mixing solutions (2 ml) of (A) Alexa-FABP1 (0.25 μM [estimated by A280 prior to conjugation reaction, accounting for dilution, and assuming no protein loss during the reaction as described earlier]) and (B) P450 4A11 (0.25 μM) were prepared in potassium phosphate buffer (100 mM, pH 7.4) and loaded into the stopped-flow spectrofluorometer described earlier. The instrument (1.24 mm slit width) was set with an excitation wavelength of 470 nm and Oriel end-on filter for emission >495 nm. The fluorescence maximum of Alexa-FABP1 is 510 nm as described earlier, and stimulation is observed upon protein–protein binding (see “Titrations of Alexa-FABP1 with P450 4A11”). At least six replicate measurements were recorded, the spectra were processed such that the fluorescence gain (from DAUDA binding) began at an (x, y) intercept of (0, 0), and the spectra were averaged. A smoothing factor of 0.4 was applied to the data (in Microsoft Excel), and the resulting curve was fit to a single exponential plot in GraphPad Prism, and the rate of association was extracted. The data were loaded into KinTek Explorer and fit to a minimal kinetic model of protein–protein association (i.e., E+F↔EF ), and a second-order rate constant for the association was extracted.

reduction of rate of P450 catalysis, Fig. 12B vs Fig. 12A model [1] [fold]	rate of protein–protein association ([4]; Alexa-FABP1 0.125 μM, P450 4A11 0.125 μM, single exponential) [s⁻¹]	kon of FABP1–P450 4A11 association (k6) ([4]; KinTek fit to E+F↔EF)	kon of FABP1–P450 4A11 association ([4]; binding rate ∼2 s^−1 divided by 0.125 μM) [M⁻¹ s⁻¹]	koff of FABP1–P450 4A11 (k-6) ([4]; calculated from kon and Kd)	Compound	forward rate of ES′→ES conformational transition ([1]; direct transfer model) [s⁻¹]	reverse rate of ES′→ES conformational transition ([1]; direct transfer model) [s⁻¹]	rate of P450 catalysis used in direct transfer model ([1]; fit to Fig. 12A (FABP1 varied, palmitate 5 μM)) [s⁻¹]	rate of P450 catalysis used in direct transfer model ([1]; fit to Fig. 12B (palmitate varied, FABP1 5 μM)) [s⁻¹]	Kd [2] [nM]	Kd [3] [nM]	Kd [1] [nM]
20					CCCCCCCCCCCCCCCC(=O)O [Palmitate (C16), palmitate]	0.086	0.013	0.11	0.005	38 ± 1	60	
	~2	2.0 × 10^7 (k6) M^−1 s^−1	1.6e+07	2.4 (k-6) s^−1	FABP1: delipidated recombinant liver fatty acid binding protein with C-terminal hexahistidine tag							1000
